Results as given in patent publication US20110003892A1, “ALL-TRANS RETINOID ESTERS AS ACTIVE PHARMACEUTICAL INGREDIENTS, ORAL AND TOPICAL DOSAGE FORM COMPOSITIONS THEREOF, AND METHODS OF TREATING SKIN CONDITIONS THEREOF” (priority 2008, published 2011).

Experiments:
[1] = Body weight change from baseline in orally dosed Rhino mice; assay type: in vivo; settings: oral treatment, 24 days, any dose of retinoid studied (FIG. 2)
Description: (§1) Animals and dose administration. Rhino mice 6-8 weeks old were orally dosed. The mice were dosed daily. The mice were weighed three times per week, and doses were adjusted weekly based on body weight. The oral formulation was made by mixing each API with Wesson® soybean oil. The oral dose was delivered to the back of the mouth of each mouse. Mice were sacrificed 4 hours after the final oral dose. At sacrifice, the dorsal skin was collected for histological studies.

[2] = test system: Rhino mice; experiment: Comedolytic effect in orally dosed Rhino mice (comedone area by histology); assay type: in vivo; settings: oral treatment; for dose producing maximal reduction in comedone size as compared to the vehicle control: 24 days (FIG. 1); for reduction in comedone area: each retinoid alone, 24 days, various doses (FIG. 1)
Description: as §1
Comedolytic effect. The extent of the comedolytic effect (i.e., efficacy) was assessed by measuring the average area of the comedones, whereby the smaller the area, the larger the effect and efficacy. The comedone area was determined by histological analysis of tissue sections. Skin was fixed overnight in 4% paraformaldehyde at 4° C. with gentle agitation, and the skin was dehydrated the next day in 100% methanol. Samples were embedded in paraffin and a qty. nine 10μ sections each spaced 150μ apart were prepared from each Rhino mouse. Five of the nine sections were digitally imaged (6× magnification) for comedone analysis using Metamorph Imaging Software (trace function).
The perimeter of each imaged comedone taken from the 5 sections was traced using a Wacom Intuos 3 Graphics Tablet interfaced with the software. The number of pixels representing each individual comedone area was obtained. The mean number of pixels per comedone was obtained for each Rhino mouse. For comedones that were completely healed (i.e., area=0), a pixel value approaching 0 (<10) was assessed. The individual comedone average for each mouse was used to calculate the treatment group mean. Results in the figures herein have been expressed in terms of mean±standard error of the mean.
Preparation of oral retinoid dosing formulations. A concentrated stock solution containing each retinoid was prepared in dichloromethane. The retinoid concentrated stock solution was diluted into ethanol. The concentration of retinoid in that diluted stock solution was determined spectrophotometrically, whereby the molar extinction coefficient=44,340 and λmax=350. The purity of the SB-RA, IPE-RA, IB-RA, and t-butyl RA was determined to be greater than 98% by HPLC. A predetermined volume of retinoid-containing solution was added to Wesson® oil, the sample was mixed, and the residual dichloromethane was removed by flushing the oil with argon for 2-3 hours under a vapor hood. The final dose was delivered orally using ≦50 μL of oil.

[3] = test system: RARs; settings: Repa J J et al., 1993; cited from earlier work

Compound | % change from the starting baseline weight (overall group weight) [1] | dose producing maximal reduction in comedone size as compared to the vehicle control [2] [μmole/kgBW] | reduction in comedone area [2] | binding to the RARs [3]
CC1=C(/C=C/C(C)=C/C=C/C(C)=C/C(=O)OC(C)C)C(C)(C)CCC1 [IPE-RA, all-trans-retinoic acid iso-propyl ester] | no significant reduction | 26.2 | significant dose-dependent reduction | 
CCC(C)OC(=O)/C=C(C)/C=C/C=C(C)/C=C/C1=C(C)CCCC1(C)C (stereo not drawn) [SB-RA, all-trans-retinoic acid sec-butyl ester] | no significant reduction | 26.2 | significant dose-dependent reduction | 
CC1=C(/C=C/C(C)=C/C=C/C(C)=C\C(=O)O)C(C)(C)CCC1 [13-cis retinoic acid] |  |  |  | does not bind
CC1=C(/C=C/C(C)=C/C=C/C(C)=C/C(=O)OC(C)(C)C)C(C)(C)CCC1 [t-butyl-RA, all-trans-retinoic acid tert-butyl ester] | no significant reduction | 166 | significant dose-dependent reduction | 
CC1=C(/C=C/C(C)=C/C=C/C(C)=C/C(=O)OCC(C)C)C(C)(C)CCC1 [IB-RA, All-trans-retinoic acid iso-butyl ester] | no significant reduction | 26.2 | significant dose-dependent reduction | 
